Measurements published in PMC11881554 (Antimicrobial Agents and Chemotherapy, 2025).
Read-outs that look alike come from different tables or passages of the source. Values belong to the molecule of their own block, whether it stands above or below them.

Columns and labels:
[1] = parameters: method as in PMID 37358467; settings: cited from earlier work
[2] = Plasma pharmacokinetics of MB076 after single IV dose in thigh-infected mice; format: in vivo, mouse; settings: for half-life / AUC(0-t) / AUC(0-inf) / C0 / clearance / Vd: plasma; for half-life: iv; for Vd: read-out: Vss
Procedure: A single dose PK study was conducted in mice infected with K. pneumoniae AR-BANK#0098 (producing KPC-2, OXA-9, and TEM-1) employing a thigh infection model. Escalating doses of MB076 (12.5, 25, 50, and 100 mg/kg) were intravenously administered via the tail vein. Following this terminal blood sampling via cardiac puncture was performed at eight different time points 5, 15, 30, 60, 90, 120, 180, and 240 min for each dose level. Plasma was separated by centrifugation at 4,000g for 10 min at 4°C and stored at −80°C until MB076 quantification was performed by LC/MS-MS bioanalysis.
WinNonlin software (Phoenix Build 8.3.1.5014) was employed to perform noncompartmental analysis (NCA) to calculate the PK parameters like elimination half-life (t1/2), area under the concentration–time curve over the duration of study (AUC0–last), and infinity (AUC0–inf), and the peak drug concentration (C0), volume of distribution (V) and clearance (CL). The AUCs for the different MB076 dose levels were calculated and compared to assess for any dose related non-linearity with increasing dose.
Terminal blood collection from cardiac puncture was conducted under CO2 euthanasia. Blood, 0.3–0.4 mL, was drawn into tubes coated with K2EDTA, mixed gently and kept on ice, and centrifuged at 12,000 × g for 5 min at 4°C within 1 h of collection. The plasma was harvested and stored at −80°C until further processing.
A 20 µL aliquot of each plasma sample was transferred to a 96 well plate. A 500 µL aliquot of 0.01 ng/µL internal standard (IS), Oxybutynin, in ACN/FA = 95/5, was added to each tube except for the double blank and carryover controls. A 500 µL aliquot of ACN/FA = 95/5, without oxybutynin, was added to the double blank and carryover assay wells. The equilibrated mixture was vortexed for 1 min and then centrifuged at 4,000 rpm for 10 min at 20°C to precipitate protein. After centrifugation, 500 µL of the supernatant was transferred to a new well of the 96 well plate for LC-MS/MS analysis. Plasma samples from treatment groups and the calibration curve samples were processed on the same test occasion using the same procedure. The calibration curve samples were generated by spiking aliquots of drug-free plasma with an MB076 dilution. The quality control (QC) samples, QH (high), QM (medium), and QL (low) were each assayed in duplicate.
LC-MS/MS was conducted with a SCIEX Triple Quad 5500 + mass spectrometer. Method development was conducted to determine appropriate conditions for LC-MS/MS analysis of MB076. A titration of a stock solution was performed to correlate peak areas and the corresponding concentration. The reportable linear range of the assay was determined along with the lower and upper limits of quantitation (LLOQ and […]).
To develop the bioanalytical method, MB076 was prepared in ACN/H2O = 50/50 at 1 ng/µL. Full scan MS analyses were conducted, and total ion current chromatograms and corresponding mass spectra were reviewed for MB076 in both positive and negative ionization modes. The precursor ions for MS/MS were selected from either the positive or the negative mass spectrum, as a function of the respective ion abundance. In addition, product ion MS/MS analysis was performed to determine the appropriately selected fragmentation reaction for use in quantitative analysis. The final reaction monitoring parameters were chosen to maximize the ability to quantify the test compound when present within a complex mixture of components. Following the identification of the specific multiple reaction monitoring (MRM) transition to be used for each test compound, the detection parameters were optimized. MB076 was observed as one charged ion [M + H]+ and the MRM chosen was m/z = 374.0 to m/z = 243.2 for MB076 in electrospray positive ion mode.
The chromatographic conditions used for LC-MS analysis were identified by injection and separation of the analyte on a suitable LC column followed by adjustment of the gradient conditions as necessary. […]

[3] = system: K. pneumoniae KPC-Kpn-1; experiment: Static time-kill assay in CAMHB; format: cell-based; settings: in combination with cefepime
Procedure: (§1) Cation adjusted (25.0 mg/L Ca^2+ and 12.5 mg/L Mg^2+) Mueller-Hinton broth (CAMHB; BBL Microbiology Systems, Cockeysville, MD) and agar (CAMHA; Becton, Dickinson and Company, Sparks, MD) were used for susceptibility testing and for all in vitro experiments. […] All antibiotic solutions were filter sterilized using a 0.22-μm-pore-size filter (Fisher Scientific, Pittsburgh, PA).

[4] = system: K. pneumoniae isolate KPC-Kpn-1; experiment: Neutropenic mouse lung infection model (intranasal challenge); format: in vivo; settings: 24 h post treatment; treatment from 2 h post infection; cefepime 127.5 mg/kg/day SC, MB076 100 mg/kg/day IV (25 mg/kg every 6 h); neutropenic mice, n = 5
Procedure: (§2) A 0.2 mL aliquot of a single-use glycerol stock of the KPC-Kpn isolate (at −80°C) was used to seed 20 mL brain heart infusion (BHI) and then incubated at 35–37°C with shaking (120 rpm) for 8 h. Bacterial cells in the 20 mL aliquot were pelleted by centrifugation (3,500 × g) for 15 min and then resuspended in 10 mL cold phosphate buffer saline (PBS). The optical density, OD620 nm, was measured and used to guide dilution. The PBS suspensions were stored on ice for no more than 2 h prior to infecting the animals. The bacterial count in the challenge organism suspension was enumerated by dilution plating to CAMH agar plates followed by 20–24 h incubation.
Eleven- to 12-week-old BALB/c mice obtained from Charles River Laboratories (Raleigh, NC) were allowed to acclimatize for at least 1 week prior to initiating the studies. All animal procedures were approved by the Institutional Animal Care and Use Committee at the University of North Carolina at Chapel Hill (IACUC ID: 21-125.0), and all experiments were performed in accordance with institutional guidelines for animal experiments. […]
Five mice/group were sacrificed by overdose of inhaled 5% isoflurane at 26 h post inoculation. […] Lung bacterial counts were analyzed using a one-way ANOVA followed by post-hoc Tukey multiple comparison test (GraphPad Prism 10.1, GraphPad Software Inc., San Diego, USA). […]

[5] = system: K. pneumoniae Kpn 255 (TEM-1, SHV-2); experiment: MIC by agar dilution, Kpn 255; format: cell-based; settings: Klebsiella pneumoniae, MB076 fixed at 4 µg/mL in the combination
Procedure: as §1

[6] = system: K. pneumoniae Kpn266 (SHV-5); experiment: MIC by agar dilution, Kpn266; format: cell-based; settings: Klebsiella pneumoniae, MB076 fixed at 4 µg/mL in the combination
Procedure: as §1

[7] = system: K. pneumoniae Kpn ST258 B5 (KPC-2); experiment: MIC by agar dilution, Kpn ST258 B5; format: cell-based; settings: Klebsiella pneumoniae, MB076 fixed at 4 µg/mL in the combination
Procedure: as §1

[8] = system: K. pneumoniae KPC-Kpn-1; experiment: Survival of mice infected intravenously via the tail vein; format: in vivo; settings: male C57BL/6, 7 per group, 2.1 × 10^8 CFU/mouse IV; 100 mg/kg/dose at infection, 18 and 24 h; combination at 1:4 molar ratio
Procedure: as §2
Seven male C57BL/6 mice per treatment group were infected intravenously via the tail-vein by injecting a prepared inoculum of KPC-Kpn-1, input CFU = 2.1 × 10^8 CFU/mouse, contained in a volume of 0.25 mL per animal. […] Doses were repeated the following morning and afternoon (18 and 24 h after infection). Survival was evaluated 24 h post-treatment. Kaplan-Meier survival curves were generated using log-rank test (GraphPad Prism 10.1, GraphPad Software Inc., San Diego, USA). A P value of <0.05 was considered statistically significant.

[9] = system: E. coli ATCC BAA202 (SHV-1); experiment: MIC by agar dilution, E. coli ATCC BAA202; format: cell-based; settings: Escherichia coli, ATCCBAA202, MB076 fixed at 4 µg/mL in the combination
Procedure: as §1

[10] = system: K. pneumoniae Kpn original KPC-2; experiment: MIC by agar dilution, Kpn original KPC-2; format: cell-based; settings: Klebsiella pneumoniae, MB076 fixed at 4 µg/mL in the combination
Procedure: as §1

[11] = system: K. pneumoniae Kpn ST17 (KPC-2, TEM, SHV, CTX-M group 1); experiment: MIC by agar dilution, Kpn ST17; format: cell-based; settings: Klebsiella pneumoniae, MB076 fixed at 4 µg/mL in the combination
Procedure: as §1

[12] = system: K. pneumoniae Kpn ST258 C3 (KPC-3); experiment: MIC by agar dilution, Kpn ST258 C3; format: cell-based; settings: Klebsiella pneumoniae, MB076 fixed at 4 µg/mL in the combination
Procedure: as §1

[13] = system: K. pneumoniae Kpn 34700 (CTX-M-15, SHV, TEM); experiment: MIC by agar dilution, Kpn 34700; format: cell-based; settings: Klebsiella pneumoniae, MB076 fixed at 4 µg/mL in the combination
Procedure: as §1

[14] = system: K. pneumoniae KPC-Kpn-1 (KPC-3, SHV-12, TEM-1); experiment: MIC by agar dilution, KPC-Kpn-1; format: cell-based; settings: Klebsiella pneumoniae, inhibitor (MB076 or S02030) fixed at 4 µg/mL in the combination
Procedure: as §1

[15] = healthy adults, multidose cefepime and zidebactam; cited from earlier work
[16] = mouse, 12.5 mg/kg single IV, thigh-infected mice
[17] = mouse, 25 mg/kg single IV, thigh-infected mice
[18] = mouse, 50 mg/kg single IV, thigh-infected mice
[19] = mouse, 100 mg/kg single IV, thigh-infected mice

reduction in clearance ([2]; 100 mg/kg compared to 12.5 mg/kg): 1.7 fold
increase of dose-normalized AUC ([2]; from 12.5 to 100 mg/kg dose): twofold
extraction ratio ([2]; hepatic blood flow in mouse 5.4 L/h/kg): 0.33
clearance classification ([2]; mouse, IV): low clearance compound
half-life ([2]; mouse, 25 mg/kg, 25 mg/kg single IV, thigh-infected mice): 36.6 min
half-life ([2]; mouse, 50 mg/kg, 50 mg/kg single IV, thigh-infected mice): 25.8 min
half-life ([2]; mouse, 100 mg/kg, 100 mg/kg single IV, thigh-infected mice): 25.8 min
AUC(0-t) ([2]; mouse, single IV 12.5 to 100 mg/kg, infected mice, read-out: AUClast, range over the dose levels): 7100 to 103000 ng·h/mL
dose linearity of plasma PK ([2]; mouse, single IV): linear PK in plasma up to 50 mg/kg dose
AUC(0-inf) [2, 16]: 7200 ng·h/mL
C0 [2, 16]: 35.6 µg/mL
clearance [2, 16]: 29.1 mL/min/kg
AUC(0-t) ([2]; mouse, 12.5 mg/kg single IV, thigh-infected mice, read-out: AUClast): 7100 ng·h/mL
Vd [2, 16]: 0.65 L/kg
AUC(0-inf) [2, 17]: 17800 ng·h/mL
C0 [2, 17]: 84 µg/mL
clearance [2, 17]: 23.4 mL/min/kg
AUC(0-t) ([2]; mouse, 25 mg/kg single IV, thigh-infected mice, read-out: AUClast): 17600 ng·h/mL
Vd [2, 17]: 0.8 L/kg
AUC(0-inf) [2, 18]: 31900 ng·h/mL
C0 [2, 18]: 207 µg/mL
clearance [2, 18]: 21.3 mL/min/kg
AUC(0-t) ([2]; mouse, 50 mg/kg single IV, thigh-infected mice, read-out: AUClast): 39000 ng·h/mL
Vd [2, 18]: 0.35 L/kg
AUC(0-inf) [2, 19]: 104000 ng·h/mL
C0 [2, 19]: 638 µg/mL
clearance [2, 19]: 16.1 mL/min/kg
AUC(0-t) ([2]; mouse, 100 mg/kg single IV, thigh-infected mice, read-out: AUClast): 103000 ng·h/mL
Vd [2, 19]: 0.21 L/kg
SMILES: Nc1nnc(SCC(=O)N[C@@H](Cn2cc(C(=O)O)nn2)B(O)O)s1 [MB076]
t1/2 (plasma stability) [1]: 1740 min
inhibitor concentration achieving sustained bacterial killing [3]: 4 µg/mL

SMILES: O=C(Cc1cccs1)N[C@@H](Cn1cc(C(=O)O)nn1)B(O)O [S02030]
t1/2 (plasma stability) [1]: 540 min
inhibitor concentration achieving sustained bacterial killing [3]: 8 µg/mL

SMILES: CO/N=C(\C(=O)N[C@@H]1C(=O)N2C(C(=O)[O-])=C(C[N+]3(C)CCCC3)CS[C@H]12)c1csc(N)n1 [FEP, cefepime]
log10 CFU reduction in lung compared to the no treatment control group [4]: 1.07 log10 CFU
MIC [5]: 4 µg/mL
MIC [6]: 2 µg/mL
MIC [7]: 32 µg/mL
survival outcome of all mice in the group [8]: died
MIC [9]: 1 µg/mL
MIC [10]: 64 µg/mL
MIC [11]: 8 µg/mL
MIC [12]: 32 µg/mL
MIC [13]: 32 µg/mL
MIC [14]: 32 µg/mL
median AUCELF/AUCplasma [15]: 38%
